Assays:
aldose reductase = molecular target: T1, aldose reductase (Oryctolagus cuniculus, UniProt P15122); assay: Enzymatic assay method: aldose reductase inhibition (in vitro test); format: biochemical; details: rabbit lens enzyme; D,L-glyceraldehyde, NADPH; 35° C., 2 minutes; pH 6.2 buffer; read-out: IC50: concentration at which 50% of the aldose reductase activity is inhibited
T1 construct: The supernatant was dialyzed against 2 liters of 0.05M of saline solution and the dialyzed solution was used as the enzyme solution; from tissue; host or cells: rabbit eye lens, 10,000 G supernatant of homogenate, dialyzed
Description: (1) Enzymatic assay method:
0.5 M Phosphate buffer (pH 6.2)
2.0 M Lithium sulfate 0.2 ml
The compound of this invention mentioned
(dissolved in physiological saline
Enzyme solution [aldose reductase solution,
prepared as described below (2)]
60 mM D,L-glyceraldehyde 0.05 ml
2.5 mM Nicotinamide adenine
dinucleotide phosphate (reduced form)
The above reactants were mixed and reacted at 35° C. for 2 minutes and the decrease in amount of NADPH was measured with an Automatic Reaction Rate Analyzer Model LKB-8600 (Trademark, made by LKB Producter A.B.). The enzyme activity at a change in absorbance of 0.001 per minute was taken as unity.
(2) Method for preparing an enzyme solution
Rabbit eyes were enucleated and the lenses were collected. The lenses were homogenized with 3 volumes of distilled water at 4° C. (All the subsequent procedures were also performed at 4° C.) and centrifuged at 10,000 G for 60 minutes. The supernatant was dialyzed against 2 liters of 0.05M of saline solution and the dialyzed solution was used as the enzyme solution.
Each IC50 value (M) represents the concentration of the compounds of this invention at which 50% of the aldose reductase activity is inhibited.

[1] = system: sorbitol accumulation in sciatic nerve; assay: Inhibitory effect of drug on sorbitol accumulation in sciatic nerve (in vivo test); design: species or system Male Sprague-Dawley rats (streptozotocin-induced diabetic); details: 32 mg/kg, oral, once a day for five days; 6 hours after final administration; streptozotocin-diabetic rats
Description: Inhibitory effect of drug on sorbitol accumulation in sciatic nerve:
Male Sprague-Dawley rats (6 weeks old) were fasted for 24 hours and then made diabetic by the intraperitoneal injection (2 ml/kg) of streptozotocin (75 mg/kg) dissolved in 2 mM citrate buffer (pH 4.5).
Seven days after streptozotocin injection, blood glucose value was measured by taking blood from tail vein. Rats with blood glucose value of >300 mg/dl were used as streptozotocin-induced diabetic animals.
Diabetic animals were divided at random into two groups (group (A) and group (B)).
Drug was suspended in 0.5% aqueous methylcellulose solution and orally administered to each rat in group (A) once a day for five days [hereinafter referred to as drug-treated diabetic rats].
Each of rats in group (B) and of normal rats was given the vehicle (0.5% aqueous methylcellulose solution) [hereinafter referred to as untreated diabetic rats and control rats, respectively].
Six hours after final administration of drug or vehicle, animals were killed and sorbitol content in sciatic nerve was assayed. Inhibitory percent of drug on sorbitol accumulation in sciatic nerve was calculated as follows. [formula]
S: Sorbitol content in sciatic nerve of untreated diabetic rats.
SD : Sorbitol content in sciatic nerve of drug-treated diabetic rats.
N: Sorbitol content in sciatic nerve of control rats.

| IC50 (aldose reductase) | SMILES | I: Inhibitory percent on sorbitol accumulation in sciatic nerve [1] |
| --- | --- | --- |
| 5.3 nM | O=C(O)Cn1c(=O)n(Cc2ccc(I)cc2F)c(=O)c2ccccc21 [Compound D, 2-[3-(2-Fluoro-4-iodobenzyl)-1,2,3,4-tetrahydro-2,4-dioxoquinazolin-1-yl]acetic acid] | 101% |
| 4.8 nM | O=C(O)Cn1c(=O)n(Cc2ccc(Br)cc2F)c(=O)c2ccccc21 [Compound B, 2-[3-(4-Bromo-2-fluorobenzyl)-1,2,3,4-tetrahydro-2,4-dioxoquinazolin-1-yl]acetic acid] | – |
| 5.4 nM | COc1ccc2c(=O)n(Cc3ccc(Br)cc3F)c(=O)n(CC(=O)O)c2c1 [Compound C, 2-[3-(4-Bromo-2-fluorobenzyl)-1,2,3,4-tetrahydro-7-methoxy-2,4-dioxoquinazolin-1-yl]acetic acid] | – |
| 3.1 nM | O=C(O)Cn1c(=O)n(Cc2ccc(Br)cc2F)c(=O)c2ccc(Br)cc21 [Compound E, 2-[7-Bromo-3-(4-bromo-2-fluorobenzyl)-1,2,3,4-tetrahydro-2,4-dioxoquinazolin-1-yl]acetic acid] | 103% |
| – | O=C(O)Cn1c(=O)n(Cc2ccc(Br)cc2F)c(=O)c2ccc(Cl)cc21 [Compound F, 2-[3-(4-Bromo-2-fluorobenzyl)-7-chloro-1,2,3,4-tetrahydro-2,4-dioxoquinazolin-1-yl]acetic acid] | 99% |
| 5.4 nM | O=C(O)Cn1c(=O)n(Cc2ccc(Cl)c(Cl)c2)c(=O)c2ccccc21 [Compound A, 2-[3-(3,4-Dichlorobenzyl)-1,2,3,4-tetrahydro-2,4-dioxoquinazolin-1-yl]acetic acid] | – |
